The values that follow come from patent publication US20240360146A1, “BRUTON'S TYROSINE KINASE AND MUTANT DEGRADER, COMPOSITION AND APPLICATION THEREOF” (HANGZHOU HEALZEN THERAPEUTICS CO., LTD., priority 2021, published 2024).

Where only a bound is given, the exact number is not on record here.

In this assay the target is T1, BTK (Homo sapiens, UniProt Q06187).
T1 construct: endogenous in cells; host or cells: Mino cells
T1 sequence (Q06187 whole entry): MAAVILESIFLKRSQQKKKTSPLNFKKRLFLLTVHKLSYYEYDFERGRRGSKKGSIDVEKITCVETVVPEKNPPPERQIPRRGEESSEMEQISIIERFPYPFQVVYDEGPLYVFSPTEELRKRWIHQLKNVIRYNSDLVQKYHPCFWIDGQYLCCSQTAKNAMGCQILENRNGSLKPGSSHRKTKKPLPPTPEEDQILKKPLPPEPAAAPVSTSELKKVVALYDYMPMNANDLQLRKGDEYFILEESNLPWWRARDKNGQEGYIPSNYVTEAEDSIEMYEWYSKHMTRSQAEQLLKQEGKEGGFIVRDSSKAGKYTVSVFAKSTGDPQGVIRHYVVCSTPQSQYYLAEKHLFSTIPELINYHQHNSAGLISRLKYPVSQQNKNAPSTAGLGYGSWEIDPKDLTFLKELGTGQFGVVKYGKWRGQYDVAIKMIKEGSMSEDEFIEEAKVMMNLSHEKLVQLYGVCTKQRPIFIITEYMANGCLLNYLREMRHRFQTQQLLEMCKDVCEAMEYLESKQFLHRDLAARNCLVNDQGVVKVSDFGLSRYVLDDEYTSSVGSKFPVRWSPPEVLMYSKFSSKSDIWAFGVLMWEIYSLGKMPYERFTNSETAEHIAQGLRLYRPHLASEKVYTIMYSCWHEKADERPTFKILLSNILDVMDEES
The assay can be described thus: BTK degradation activity test in Mino cells. Format: cell-based. Particulars: 16 h incubation, Western blot or Elisa. Put shortly: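 DC50 derived by curve fitting of BTK degradation rates versus untreated control across compound concentrations. Mino cells were exposed for 16 h; BTK levels in lysates, normalised via BCA protein, measured by Western blot or ELISA.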
(In western blotting, separated proteins are transferred to a membrane and probed.)
What is called DC50 is the concentration at which degradation of the target reaches its halfway point. For `CN1CCN([C@@H]2CCCN(c3nnc(C(N)=O)c(Nc4ccc(N5CCN(CC6CCN(c7cccc8c(C9CCC(=O)NC9=O)nn(C)c78)C6)CC5)c(F)c4)n3)C2)C1=O` (stereo partly drawn) [Compound 216, 5-((4-(4-((1-(3-(2,6-dioxopiperidin-3-yl)-1-methyl-1H-indazol-7-yl)pyrrolidin-3-yl)methyl)piperazin-1-yl)-3-fluorophenyl)amino)-3-((R)-3-(3-methyl-2-oxoimidazolidin-1-yl)piperidin-1-yl)-1,2,4-triazin-6-carboxamide], the DC50 is under 1 nM. For `CN1CCN([C@@H]2CCCN(c3nnc(C(N)=O)c(Nc4ccc(N5CCN(CC6CCN(c7cccc8c(C9CCC(=O)NC9=O)nn(C)c78)CC6)CC5)c(F)c4)n3)C2)C1=O` (stereo partly drawn) [Compound 217, 5-((4-(4-((1-(3-(2,6-dioxopiperidin-3-yl)-1-methyl-H-indazol-7-yl)piperidin-4-yl)methyl)piperazin-1-yl)-3-fluorophenyl)amino)-3-((R)-3-(3-methyl-2-oxoimidazolidin-1-yl)piperidin-1-yl)-1,2,4-triazin-6-carboxamide], the DC50 is under 1 nM.

The compound `CN1CCN([C@@H]2CCCN(c3nnc(C(N)=O)c(Nc4ccc(N5CCN(CC6CCN(c7ccc8c9c([nH]c8c7)C(=O)N(C7CCC(=O)NC7=O)C9)C6)CC5)c(F)c4)n3)C2)C1=O` (stereo partly drawn) [Compound 220, 5-((4-(4-((1-(2-(2,6-dioxopiperidin-3-yl)-3-oxo-1,2,3,4-tetrahydropyrrolo[3,4-b]indol-6-yl)pyrrolidin-3-yl)methyl)piperazin-1-yl)-3-fluorophenyl)amino)-3-((R)-3-(3-methyl-2-oxoimidazolidin-1-yl)piperidin-1-yl)-1,2,4-triazin-6-carboxamide] yielded a DC50 of under 1 nM.

The compound `CN1CCN([C@@H]2CCCN(c3nnc(C(N)=O)c(Nc4ccc(N5CCN(CC6CCN(c7ccc8c9c(oc8c7)C(=O)N(C7CCC(=O)NC7=O)C9)C6)CC5)c(F)c4)n3)C2)C1=O` (stereo partly drawn) [Compound 221, 5-((4-(4-((1-(2-(2,6-dioxopiperidin-3-yl)-3-oxo-2,3-dihydro-H-benzofuro[2,3-c]pyrrol-6-yl)pyrrolidin-3-yl)methyl)piperazin-1-yl)-3-fluorophenyl)amino)-3-((R)-3-(3-methyl-2-oxoimidazolidin-1-yl)piperidin-1-yl)-1,2,4-triazin-6-carboxamide] returned a half-maximal degradation concentration (DC50) of under 1 nM.

With `CN1CCN([C@@H]2CCCN(c3nnc(C(N)=O)c(Nc4ccc(N5CCN(C#Cc6ccc(C(=O)NC7CCC(=O)NC7=O)c(F)c6)CC5)c(F)c4)n3)C2)C1=O` (stereo partly drawn) [Compound 225, 5-((4-(4-((4-((2,6-dioxopiperidin-3-yl)carbamoyl)-3-fluorophenyl)ethynyl)piperazin-1-yl)-3-fluorophenyl)amino)-3-((R)-3-(3-methyl-2-oxoimidazolidin-1-yl)piperidin-1-yl)-1,2,4-triazin-6-carboxamide], the DC50 was under 1 nM. Take `Cc1cc(C#CCN2CCN(c3ccc(Nc4nc(N5CCC[C@@H](N6CCN(C)C6=O)C5)nnc4C(N)=O)cc3F)CC2)ccc1C(=O)NC1CCC(=O)NC1=O` (stereo partly drawn) [Compound 226, 5-((4-(4-(3-(4-((2,6-dioxopiperidin-3-yl)carbamoyl)-3-methylphenyl)propan-2-yn-1-yl)piperazin-1-yl)-3-fluorophenyl)amino)-3-((R)-3-(3-methyl-2-oxoimidazolidin-1-yl)piperidin-1-yl)-1,2,4-triazin-6-carboxamide]: the 50% degradation concentration (DC50) was under 1 nM.

In turn, `CN1CCN([C@@H]2CCCN(c3nnc(C(N)=O)c(Nc4ccc(N5CCN(CC#Cc6ccc(NC7CCC(=O)NC7=O)c(F)c6)CC5)c(F)c4)n3)C2)C1=O` (stereo partly drawn) [Compound 228, 5-((4-(4-(3-(4-((2,6-dioxopiperidin-3-yl)amino)-3-fluorophenyl)propan-2-yn-1-yl)piperazin-1-yl)-3-fluorophenyl)amino)-3-((R)-3-(3-methyl-2-oxoimidazolidin-1-yl)piperidin-1-yl)-1,2,4-triazin-6-carboxamide] returned a DC50 of under 1 nM. `CN1CCN([C@@H]2CCCN(c3nnc(C(N)=O)c(Nc4ccc(N5CCN(CC#Cc6ccc(NC7CCC(=O)NC7=O)c7ocnc67)CC5)c(F)c4)n3)C2)C1=O` (stereo partly drawn) [Compound 229, 5-((4-(4-(3-(7-((2,6-dioxopiperidin-3-yl)amino)benzo[d]oxazol-4-yl)propan-2-yn-1-yl)piperazin-1-yl)-3-fluorophenyl)amino)-3-((R)-3-(3-methyl-2-oxoimidazolidin-1-yl)piperidin-1-yl)-1,2,4-triazin-6-carboxamide] showed a DC50 of under 1 nM.

In turn, `CN1CCN([C@@H]2CCCN(c3nnc(C(N)=O)c(Nc4ccc(N5CCN(CC#Cc6ccc(C(=O)NC7CCC(=O)NC7=O)s6)CC5)c(F)c4)n3)C2)C1=O` (stereo partly drawn) [Compound 230, 5-((4-(4-(3-(5-((2,6-dioxopiperidin-3-yl)carbamoyl)thiophen-2-yl)propan-2-yn-1-yl)piperazin-1-yl)-3-fluorophenyl)amino)-3-((R)-3-(3-methyl-2-oxoimidazolidin-1-yl)piperidin-1-yl)-1,2,4-triazin-6-carboxamide] registered a DC50 of under 1 nM. `CN1CCN([C@@H]2CCCN(c3nnc(C(N)=O)c(Nc4cc(F)c5c(c4)CCN(CC4CCN(c6ccc7c(c6)C(=O)N(C6CCC(=O)NC6=O)C7=O)CC4)CC5)n3)C2)C1=O` (stereo partly drawn) [Compound 231, 5-((3-((1-(2-(2,6-dioxopiperidin-3-yl)-1,3-dioxoisoindolin-5-yl)piperidin-4-yl)methyl)-9-fluoro-2,3,4,5-tetrahydro-1H-benzo[d]azepin-7-yl)amino)-3-((R)-3-(3-methyl-2-oxoimidazolidin-1-yl)piperidin-1-yl)-1,2,4-triazin-6-carboxamide] yielded a DC50 of under 1 nM. Then `CN1CCN([C@@H]2CCCN(c3nnc(C(N)=O)c(Nc4ccc(N5CCN(CC6CCN(c7ccc(N8CCC(=O)NC8=O)c(C(N)=O)c7)CC6)CC5)c(F)c4)n3)C2)C1=O` [Compound 233, (R)-5-((4-(4-((1-(3-carbamoyl-4-(2,4-dioxotetrahydropyrimidin-1(2H)-yl)phenyl)piperidin-4-yl)methyl)piperazin-1-yl)-3-fluorophenyl)amino)-3-(3-(3-methyl-2-oxoimidazolidin-1-yl)piperidin-1-yl)-1,2,4-triazin-6-carboxamide], with under 1 nM; and `CN1CCN([C@@H]2CCCN(c3nnc(C(N)=O)c(Nc4ccc(N5CCN(CC6CCN(c7ccc(N8CCC(=O)NC8=O)cc7)CC6)C(=O)C5)c(F)c4)n3)C2)C1=O` [Compound 235, (R)-5-((4-(4-((1-(4-(2,4-dioxotetrahydropyrimidin-1(2H)-yl)phenyl)piperidin-4-yl)methyl)-3-oxopiperazin-1-yl)-3-fluorophenyl)amino)-3-(3-(3-methyl-2-oxoimidazolidin-1-yl)piperidin-1-yl)-1,2,4-triazin-6-carboxamide], with under 1 nM. In turn, `Cc1cc(N2CCC(CN3CCC(c4ccc(Nc5nc(N6CCC[C@@H](N7CCN(C)C7=O)C6)nnc5C(N)=O)cc4CO)CC3)CC2)ccc1N1CCC(=O)NC1=O` [Compound 237, (R)-5-((4-(1-((1-(4-(2,4-dioxotetrahydropyrimidin-1(2H)-yl)-3-methylphenyl)piperidin-4-yl)methyl)piperidin-4-yl)-3-(hydroxymethyl)phenyl)amino)-3-(3-(3-methyl-2-oxoimidazolidin-1-yl)piperidin-1-yl)-1,2,4-triazin-6-carboxamide] displayed a 50% degradation concentration (DC50) of under 1 nM. `Cc1cc(N2CCC(CN3CCC(c4ccc(Nc5nc(N6CCC[C@@H](N7CCN(C)C7=O)C6)nnc5C(N)=O)c(CO)c4)CC3)CC2)ccc1N1CCC(=O)NC1=O` [Compound 238, (R)-5-((4-(1-((1-(4-(2,4-dioxotetrahydropyrimidin-1(2H)-yl)-3-methylphenyl)piperidin-4-yl)methyl)piperidin-4-yl)-2-(hydroxymethyl)phenyl)amino)-3-(3-(3-methyl-2-oxoimidazolidin-1-yl)piperidin-1-yl)-1,2,4-triazin-6-carboxamide]: the DC50 is under 1 nM. On to `Cc1cc(N2CC(CC(=O)N3CCC(c4ccc(Nc5nc(N6CCC[C@@H](N7CCN(C)C7=O)C6)nnc5C(N)=O)c(CO)c4)CC3)C2)ccc1N1CCC(=O)NC1=O` [Compound 239, (R)-5-((4-(1-(2-(1-(4-(2,4-dioxotetrahydropyrimidin-1(2H)-yl)-3-methylphenyl)azetidin-3-yl)acetyl)piperidin-4-yl)-2-(hydroxymethyl)phenyl)amino)-3-(3-(3-methyl-2-oxoimidazolidin-1-yl)piperidin-1-yl)-1,2,4-triazin-6-carboxamide], for which the DC50 is under 1 nM. Then `CN1CCN([C@@H]2CCCN(c3nnc(C(N)=O)c(Nc4ccc(C5CCN(CC6CCN(c7ccc(N8CCC(=O)NC8=O)cc7)CC6)CC5)c(CO)c4)n3)C2)C1=O` [Compound 240, (R)-5-((4-(1-((1-(4-(2,4-dioxotetrahydropyrimidin-1(2H)-yl)phenyl)piperidin-4-yl)methyl)piperidin-4-yl)-3-(hydroxymethyl)phenyl)amino)-3-(3-(3-methyl-2-oxoimidazolidin-1-yl)piperidin-1-yl)-1,2,4-triazin-6-carboxamide], with under 1 nM; and `Cc1cc(N2CCC(CN3CCC(c4ccc(Nc5nc(N6CCC[C@@H](N7CCN(C)C7=O)C6)c(F)nc5C(N)=O)cc4F)CC3)CC2)ccc1N1CCC(=O)NC1=O` [Compound 241, (R)-3-((4-(1-((1-(4-(2,4-dioxotetrahydropyrimidin-1(2H)-yl)-3-methylphenyl)piperidin-4-yl)methyl)piperidin-4-yl)-3-fluorophenyl)amino)-6-fluoro-5-(3-(3-methyl-2-oxoimidazolidin-1-yl)piperidin-1-yl)pyrazin-2-carboxamide], with under 1 nM. With `Cc1cc(N2CCC(CN3CCC(c4ccc(Nc5c(F)c(N6CCC[C@@H](N7CCN(C)C7=O)C6)c(F)c(F)c5C(N)=O)cc4F)CC3)CC2)ccc1N1CCC(=O)NC1=O` [Compound 242, (R)-2-((4-(1-((1-(4-(2,4-dioxotetrahydropyrimidin-1(2H)-yl)-3-methylphenyl)piperidin-4-yl)methyl)piperidin-4-yl)-3-fluorophenyl)amino)-3,5,6-trifluoro-4-(3-(3-methyl-2-oxoimidazolidin-1-yl)piperidin-1-yl)benzamide], the DC50 is under 1 nM.
